In BindingDB's records for doi:10.1124/jpet.104.066688 (Acadia Pharmaceuticals, 2004):

Biological target: T1, 5-hydroxytryptamine receptor 2C (Homo sapiens, UniProt P28335)
T1 sequence (P28335 whole entry): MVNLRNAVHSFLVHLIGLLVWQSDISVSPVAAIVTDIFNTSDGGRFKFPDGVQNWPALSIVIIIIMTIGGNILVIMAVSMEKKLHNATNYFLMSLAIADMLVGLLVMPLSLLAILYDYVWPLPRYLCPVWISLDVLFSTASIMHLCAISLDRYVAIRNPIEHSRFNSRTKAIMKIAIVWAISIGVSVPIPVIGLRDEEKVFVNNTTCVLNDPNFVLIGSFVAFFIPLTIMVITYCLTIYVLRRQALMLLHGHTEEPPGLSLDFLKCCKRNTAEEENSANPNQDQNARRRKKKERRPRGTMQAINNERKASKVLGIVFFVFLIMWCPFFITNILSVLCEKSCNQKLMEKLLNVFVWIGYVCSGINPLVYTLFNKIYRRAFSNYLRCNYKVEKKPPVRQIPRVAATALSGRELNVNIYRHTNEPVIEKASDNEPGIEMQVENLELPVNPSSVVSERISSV

Ki: 2.9 nM
Compound: COc1ccc(CC(=O)N(Cc2ccc(C)cc2)C2CCN(C)CC2)cc1 [N-(4-Methylbenzyl)-N-(1-methyl-4-piperidinyl)-4-methoxybenzeneacetamide]
